Assay results as given in patent publication EP4810492A1, “NMT INHIBITOR, PREPARATION METHOD THEREFOR, AND USE THEREOF” (Nanjing Synnocare Pharmaceutical Technology Co., Ltd., priority 2023, dated 2025).
Like-named read-outs stand apart in the source and are kept apart here.

Legend:
MV-4-11 cells = test: Anti-proliferative activity against MV-4-11 cells (cell viability chemiluminescence); format: cell-based; conditions: MV4-11, 72 h, MV-4-11 human monocytic leukemia cells, three days of exposure
Protocol: This study utilized a cell proliferation assay to analyze the cytotoxicity of MV-4-11 human monocytic leukemia cells after three days of exposure to NMT1 inhibitors. The MV-4-11 cell line was purchased from Nanjing Cobuilder Biotechnology Co., Ltd., and cultured in IMDM medium (Viva cell) in an incubator (Thermo) at 37 °C with 5% CO2. In this experiment, NMT1 inhibitors were dissolved in DMSO to obtain 600 µM stock solutions. Dose-response solutions were prepared with a top endpoint compound concentration of 3 µM, followed by three-fold serial dilutions in DMSO, totaling eight data points. The final concentration of DMSO was 0.5%.
MV-4-11 cells were seeded into a white 96-well plate, 80 µL of cell suspension per well, containing 6000 MV-4-11 cells. The cell plate was placed in the CO2 incubator for overnight culture. Then, 20 µL of NMT1 inhibitor solutions at different concentrations were added to the wells. The 96-well plate was placed back into the incubator for three days. Another cell plate was prepared, and the signal was read on the day of drug addition to serve as the maximum value (Max value in the equation below) for data analysis. To this cell plate, 25 µL of cell viability chemiluminescence detection reagent was added per well, followed by incubation at room temperature for 10 minutes to stabilize the luminescence signal. A multi-label analyzer was used for reading.
The raw data were converted into inhibition rates using the equation (Sample - Min) / (Max - Min) * 100%. The IC50 values were then determined by fitting a four-parameter curve (using the "log(inhibitor) vs. response - Variable slope" model in GraphPad Prism). Min: wells treated with 0.5% DMSO; Max: Day 0 wells. Table 1 provides the inhibitory activity of the compounds of the invention on MV-4-11 cell proliferation. Table 1: Compound Inhibitory Activity against NMT1 Enzyme (IC50) and Anti-proliferative Activity against MV-4-11 Cell line (IC50)

NMT1 enzyme = target: T1, NMT1 enzyme (Homo sapiens, UniProt P30419); test: Inhibitory activity on NMT1 enzyme catalysis (fluorescence intensity assay); format: biochemical
T1 sequence (P30419 1-496): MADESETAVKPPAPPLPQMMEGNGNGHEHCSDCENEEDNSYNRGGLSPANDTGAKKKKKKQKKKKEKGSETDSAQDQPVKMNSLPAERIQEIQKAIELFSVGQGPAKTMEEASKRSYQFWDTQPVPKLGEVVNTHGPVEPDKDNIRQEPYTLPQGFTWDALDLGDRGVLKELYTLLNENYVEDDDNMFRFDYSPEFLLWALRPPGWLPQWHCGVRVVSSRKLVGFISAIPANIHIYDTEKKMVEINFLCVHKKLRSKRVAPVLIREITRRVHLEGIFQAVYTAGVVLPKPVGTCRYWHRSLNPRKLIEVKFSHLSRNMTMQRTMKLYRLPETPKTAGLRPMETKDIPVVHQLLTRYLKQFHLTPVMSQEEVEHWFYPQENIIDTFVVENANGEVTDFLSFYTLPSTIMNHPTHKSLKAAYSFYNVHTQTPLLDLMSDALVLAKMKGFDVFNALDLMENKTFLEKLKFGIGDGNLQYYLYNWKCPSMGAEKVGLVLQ
Protocol: This study evaluated the ability of the compounds of the invention to inhibit NMT1 catalytic activity in vitro. […] The final concentration of the NMT1 enzyme was 6 nM, the final concentration of CPM (Reactive thiol fluorescence probe, Invitrogen, D346) was 1 µM, the final concentration of HSPP60 SRC was 20 µM, and the final concentration of DMSO was 0.5%.
Compounds were dissolved in DMSO to obtain 10 mM stock solutions. Dose-response solutions were prepared with a top endpoint compound concentration of 3 mM, followed by three-fold serial dilutions in DMSO, totaling ten data points. […] Then, 2.5 µL of the NMT1 enzyme working solution was added to the 384-well assay plate, followed by incubation at 25 °C for 10 minutes. Subsequently, 5 µL of the CPM and myristoyl-CoA working solution was added, the plate was centrifuged at 1000 rpm for 1 minute, and then 2.5 µL of the HSPP60 SRC working solution was added to initiate the reaction. The reaction was incubated at 25 °C for 45 minutes.
The IC50 curve of the compounds was fitted using the software XLfit 5.5.0 according to the nonlinear regression equation.

[1] = Plasma concentrations in mice following oral administration; conditions: ICR, mouse, po, 10 mg/kg
From the text: (§1) This study evaluated the plasma concentrations of the compounds of the present invention in mice. ICR mice were procured from JOINN Laboratories (Suzhou) Co., Ltd. At the initiation of dosing, the animals were 6-8 weeks old and weighed 18-25 g. Mice were housed in transparent plastic cages (400 mm*240 mm*200 mm). The animal facility maintained a 12-hour light/12-hour dark cycle (lights on 07:00-19:00) using fluorescent lighting. The dark period may be intermittently interrupted as required for study-related activities. Ambient temperature and relative humidity were controlled within 20-26 °C and 40-70%, respectively. Animals were fed certified rodent chow and provided with drinking water filtered and sterilized through an ultrapure water system. All animals had ad libitum access to water throughout the study. Animals were fasted for at least 12 hours prior to dosing, and food was restored 4 hours post-dosing.
(§2) Prior to dosing, body weights were recorded, and healthy animals with similar weights were selected and randomly assigned to groups (n = 3 per group) based on body weight. The compounds were formulated in a 0.5% aqueous carboxymethyl cellulose (CMC) solution and administered orally at a single dose of 10 mg/kg. Blood samples (≥0.2 mL) were collected via venipuncture at 1 h and 4 h post-dose into EDTA-K2 anticoagulant tubes. Tubes were gently inverted to mix, immediately placed in an ice-water bath, and rapidly centrifuged at 4,000 rpm for 10 min at 4 °C to separate plasma. Plasma was stored at -70 °C until analysis.
(§3) Calibration curve and QC plasma samples: Working solutions for the calibration curve and QC samples were prepared using 80% methanol in water (Thermo Fisher) as the diluent. To prepare plasma calibration standards and QC samples, 5 µL of each working solution was added to 45 µL of blank plasma and mixed. To the prepared calibration and QC samples, 300 µL of internal standard solution (tolbutamide at 8 µg/mL in acetonitrile, Thermo Fisher) was added. […] The supernatant was collected and analyzed by liquid chromatography-tandem mass spectrometry (LC-MS/MS; AB Sciex API 5000).
(§4) Plasma sample pretreatment: After thawing at room temperature, 50 µL of each plasma sample was mixed with 300 µL of the internal standard solution (tolbutamide at 8 µg/mL in acetonitrile, Thermo Fisher). […] The supernatant was collected and analyzed by LC-MS/MS (AB Sciex API 5000).
(§5) Raw chromatograms, concentrations, and accuracy data were generated using Analyst software version 1.6.3.

[2] = mouse, in vivo, po, 10 mg/kg
From the text: as §1, §2, §3, §4, §5

[3] = 6 nM NMT1 enzyme, 1.25 µM myristoyl-CoA, 20 µM HSPP60 SRC peptide, 45 minutes at 25 °C, read-out: NMT1 (IC50)

SMILES	IC50 (MV-4-11 cells)	IC50 (NMT1 enzyme; [3])	concentration at 1 h [1]	concentration at 4 h [1]	concentration at 8 h [1]	IC50 (MV-4-11 cells; Homo sapiens)	IC50 (NMT1 enzyme)	1 h Concentration [2]	4 h Concentration [2]	8 h Concentration [2]
Cc1nn(C)c(C)c1NS(=O)(=O)c1c(Cl)cc(-c2ccc3sc4c(c3c2)CNCC4)cc1Cl [Compound 1, 2,6-dichloro-4-(1,2,3,4-tetrahydrobenzo[4,5]thieno[3,2-c]pyridin-8-yl)-N-(1,3,5-trimethyl-1H-pyrazol-4-yl)benzenesulfonamide]	11.1 nM	3.44 nM	1820 ± 493 ng/mL	1350 ± 15 ng/mL	723 ± 363 ng/mL					
Cc1c(NS(=O)(=O)c2c(Cl)cc(-c3ccc4sc5c(c4c3)CNCC5)cc2Cl)c(CC(F)(F)F)nn1C [Compound 17]	62.5 nM	5.62 nM	5100 ± 2700 ng/mL	4080 ± 1970 ng/mL	3000 ± 1020 ng/mL					
Cc1c(NS(=O)(=O)c2c(Cl)cc(-c3ccc4sc5c(c4c3)CNCC5)cc2Cl)c(CC2CC2)nn1C [Compound 21]						26.9 nM	3.58 nM	1900 ± 199 ng/mL	1114 ± 196 ng/mL	679 ± 220 ng/mL
Cc1c(NS(=O)(=O)c2c(Cl)cc(-c3ccc4sc5c(c4c3)CCNC5)cc2Cl)c(CC(C)C)nn1C [Compound 54]	38 nM	4.73 nM	3320 ± 1200 ng/mL	2310 ± 211 ng/mL	981 ± 343 ng/mL					
Cc1c(NS(=O)(=O)c2c(Cl)cc(-c3ccc4oc5c(c4c3)CNCC5)cc2Cl)c(CC#N)nn1C [Compound B18]	37 nM	4.85 nM	2490 ± 1200 ng/mL	1670 ± 467 ng/mL	1040 ± 157 ng/mL					
Cc1c(NS(=O)(=O)c2c(Cl)cc(-c3ccc4oc5c(c4c3)CNCC5)cc2Cl)c(CC2CC2)nn1C [Compound B26]	11.4 nM	2.87 nM	4630 ± 2020 ng/mL	3380 ± 575 ng/mL	2150 ± 206 ng/mL					
Cc1c(NS(=O)(=O)c2c(Cl)cc(N3CCc4sc5c(c4C3)CNCC5)cc2Cl)c(CC(F)(F)F)nn1C [Compound B35]						7.48 nM	1.97 nM	2267 ± 1084 ng/mL	1270 ± 384 ng/mL	684 ± 239 ng/mL
Cc1c(NS(=O)(=O)c2ccc(-c3ccc4oc5c(c4c3)CNCC5)cc2Cl)c(CC(F)(F)F)nn1C [Compound B39]	40.1 nM	4.76 nM	9760 ± 410 ng/mL	8530 ± 1170 ng/mL	6730 ± 1450 ng/mL					
Cc1c(NS(=O)(=O)c2c(Cl)cc(-c3ccc4sc5c(c4c3)CNCC5)cc2Cl)c(CCF)nn1C [Compound B43]	3.42 nM	1.79 nM	3220 ± 650 ng/mL	1710 ± 224 ng/mL	1570 ± 104 ng/mL					
Cc1c(NS(=O)(=O)c2c(Cl)cc(-c3ccc4sc5c(c4c3)CCNC5)cc2Cl)c(CCF)nn1C [Compound B44]	9.27 nM	2.08 nM								
Cc1c(NS(=O)(=O)c2c(Cl)cc(-c3ccc4oc5c(c4c3)CNCC5)cc2Cl)c(CCF)nn1C [Compound B45]	9.51 nM	1.94 nM	5040 ± 1820 ng/mL	3800 ± 621 ng/mL	3730 ± 1280 ng/mL					
Cc1c(NS(=O)(=O)c2c(Cl)cc(N3CCc4sc5c(c4C3)CNCC5)cc2Cl)c(CCF)nn1C [Compound B46]	3.61 nM	2.03 nM								
Cc1c(NS(=O)(=O)c2ccc(-c3ccc4sc5c(c4c3)CNCC5)cc2Cl)c(CCF)nn1C [Compound B48]	3.26 nM	1.89 nM	2960 ± 340 ng/mL	1400 ± 240 ng/mL	447 ± 71 ng/mL					
Cc1c(NS(=O)(=O)c2ccc(-c3ccc4sc5c(c4c3)CCNC5)cc2Cl)c(CCF)nn1C [Compound B49]	19.5 nM	2.37 nM								
Cc1c(NS(=O)(=O)c2ccc(-c3ccc4oc5c(c4c3)CNCC5)cc2Cl)c(CCF)nn1C [Compound B50]	17.9 nM	3.95 nM								
Cc1c(NS(=O)(=O)c2ccc(-c3ccc4sc5c(c4c3)CNCC5)cc2)c(CCF)nn1C [Compound B51]	6.05 nM	2.51 nM								
Cc1c(NS(=O)(=O)c2ccc(-c3ccc4sc5c(c4c3)CCNC5)cc2)c(CCF)nn1C [Compound B52]	17.3 nM	3.88 nM	3630 ± 990 ng/mL	2180 ± 185 ng/mL	504 ± 71 ng/mL					
Cc1c(NS(=O)(=O)c2ccc(-c3ccc4oc5c(c4c3)CNCC5)cc2)c(CCF)nn1C [Compound B53]	27.2 nM	4.02 nM	2480 ± 626 ng/mL	1020 ± 361 ng/mL	399 ± 264 ng/mL					
Cc1c(NS(=O)(=O)c2c(Cl)cc(-c3ccc4sc5c(c4c3)CNCC5)cc2Cl)c(CC(F)F)nn1C [Compound B54]	5.45 nM	1.79 nM								
Cc1c(NS(=O)(=O)c2c(Cl)cc(-c3ccc4sc5c(c4c3)CCNC5)cc2Cl)c(CC(F)F)nn1C [Compound B55]	21.1 nM	3.72 nM								
Cc1c(NS(=O)(=O)c2c(Cl)cc(-c3ccc4oc5c(c4c3)CNCC5)cc2Cl)c(CC(F)F)nn1C [Compound B56]	19.6 nM	3.49 nM								
Cc1c(NS(=O)(=O)c2c(Cl)cc(N3CCc4sc5c(c4C3)CNCC5)cc2Cl)c(CC(F)F)nn1C [Compound B57]	11.8 nM	2.95 nM								
Cc1c(NS(=O)(=O)c2c(Cl)cc(N3CCc4oc5c(c4C3)CCNC5)cc2Cl)c(CC(F)F)nn1C [Compound B58]	8.97 nM	2.08 nM								
Cc1c(NS(=O)(=O)c2ccc(-c3ccc4sc5c(c4c3)CNCC5)cc2Cl)c(CC(F)F)nn1C [Compound B59]	5.3 nM	1.93 nM	1870 ± 389 ng/mL	846 ± 698 ng/mL	149 ± 114 ng/mL					
Cc1c(NS(=O)(=O)c2ccc(-c3ccc4oc5c(c4c3)CNCC5)cc2Cl)c(CC(F)F)nn1C [Compound B61]	27 nM	5.21 nM								
Cc1c(NS(=O)(=O)c2ccc(-c3ccc4sc5c(c4c3)CNCC5)cc2)c(CC(F)F)nn1C [Compound B62]	7.48 nM	2.47 nM								
Cc1c(NS(=O)(=O)c2ccc(-c3ccc4sc5c(c4c3)CCNC5)cc2)c(CC(F)F)nn1C [Compound B63]	20.4 nM	3.67 nM								
Cc1c(NS(=O)(=O)c2ccc(-c3ccc4oc5c(c4c3)CNCC5)cc2)c(CC(F)F)nn1C [Compound B64]	30.2 nM	4.08 nM	1660 ± 366 ng/mL	795 ± 127 ng/mL	260 ± 63 ng/mL					
